According to publication PMC12140300, “Development of Carbon‐11 Labeled Pyrimidine Derivatives as Novel Positron Emission Tomography (PET) Agents Enabling Brain Sigma‐1 Receptor Imaging” (Advanced Science, 2025):
pKi: −log10 of the molar value.

How the values were obtained:
Experiment in all cases: PDSP radioligand assay
Format in all cases: binding
[1] = target: T1, M2 (Homo sapiens, UniProt P08172)
T1 construct: purchased NIMH Psychoactive Drug Screening Program (PDSP)
Protocol: (§1) The ex vivo binding affinities of σRs of CNY‐01 and CNY‐02 were measured using a competitive radioligand binding assay.^[ [35] ^]
(§2) Details of individual binding assay conditions and protocols are available at the NIMH PDSP website: https://pdsp.unc.edu/pdspweb/.

[2] = test system: GABAA; settings: 10 µM
Protocol: as §1, §2

[3] = target: T2, 5-HT1A (Homo sapiens, UniProt P08908)
T2 construct: purchased NIMH Psychoactive Drug Screening Program (PDSP)
Protocol: as §1, §2

[4] = target: T3, DAT (Homo sapiens, UniProt Q01959)
T3 construct: purchased NIMH Psychoactive Drug Screening Program (PDSP)
Protocol: as §1, §2

[5] = target: M3 (Homo sapiens, UniProt P20309)
Protocol: as §1, §2

[6] = target: T4, 5-HT5A (Homo sapiens, UniProt P47898)
T4 construct: purchased NIMH Psychoactive Drug Screening Program (PDSP)
Protocol: as §1, §2

[7] = target: T5, Alpha1A (Homo sapiens, UniProt P35348)
T5 construct: purchased NIMH Psychoactive Drug Screening Program (PDSP)
Protocol: as §1, §2

[8] = target: T6, D2 (Homo sapiens, UniProt P14416)
T6 construct: purchased NIMH Psychoactive Drug Screening Program (PDSP)
Protocol: as §1, §2

[9] = target: T7, Beta2 (Homo sapiens, UniProt P07550)
T7 construct: purchased NIMH Psychoactive Drug Screening Program (PDSP)
Protocol: as §1, §2

[10] = target: D1 (Homo sapiens, UniProt P21728)
Protocol: as §1, §2

[11] = target: T8, Alpha2B (Homo sapiens, UniProt P18089)
T8 sequence (P18089 1-450): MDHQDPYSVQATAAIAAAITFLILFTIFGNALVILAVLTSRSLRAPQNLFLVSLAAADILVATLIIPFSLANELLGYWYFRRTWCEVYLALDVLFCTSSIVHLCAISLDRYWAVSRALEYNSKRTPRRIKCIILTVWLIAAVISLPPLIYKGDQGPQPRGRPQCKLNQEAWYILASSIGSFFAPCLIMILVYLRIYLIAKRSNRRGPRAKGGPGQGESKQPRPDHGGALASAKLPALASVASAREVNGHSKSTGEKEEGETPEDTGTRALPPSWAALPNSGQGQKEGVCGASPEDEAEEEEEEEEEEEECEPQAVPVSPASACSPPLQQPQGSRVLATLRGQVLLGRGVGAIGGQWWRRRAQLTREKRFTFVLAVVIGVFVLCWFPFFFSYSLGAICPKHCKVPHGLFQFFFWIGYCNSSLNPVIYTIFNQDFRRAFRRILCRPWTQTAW
Protocol: as §1, §2

[12] = target: T9, 5-HT2C (Homo sapiens, UniProt P28335)
T9 sequence (P28335 33-458): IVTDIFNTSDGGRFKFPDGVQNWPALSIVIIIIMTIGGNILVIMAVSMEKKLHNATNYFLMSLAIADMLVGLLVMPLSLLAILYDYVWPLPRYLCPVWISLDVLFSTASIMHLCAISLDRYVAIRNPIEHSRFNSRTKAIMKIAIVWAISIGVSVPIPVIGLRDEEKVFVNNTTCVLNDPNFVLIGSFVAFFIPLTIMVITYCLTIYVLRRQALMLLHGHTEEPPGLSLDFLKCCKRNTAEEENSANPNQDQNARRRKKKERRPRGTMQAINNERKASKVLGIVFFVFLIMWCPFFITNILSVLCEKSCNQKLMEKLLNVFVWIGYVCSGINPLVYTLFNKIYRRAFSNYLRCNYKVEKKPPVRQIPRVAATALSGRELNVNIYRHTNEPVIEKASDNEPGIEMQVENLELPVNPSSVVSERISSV
Protocol: as §1, §2

[13] = target: T10, Alpha2C (Homo sapiens, UniProt P18825)
T10 sequence (P18825 1-462): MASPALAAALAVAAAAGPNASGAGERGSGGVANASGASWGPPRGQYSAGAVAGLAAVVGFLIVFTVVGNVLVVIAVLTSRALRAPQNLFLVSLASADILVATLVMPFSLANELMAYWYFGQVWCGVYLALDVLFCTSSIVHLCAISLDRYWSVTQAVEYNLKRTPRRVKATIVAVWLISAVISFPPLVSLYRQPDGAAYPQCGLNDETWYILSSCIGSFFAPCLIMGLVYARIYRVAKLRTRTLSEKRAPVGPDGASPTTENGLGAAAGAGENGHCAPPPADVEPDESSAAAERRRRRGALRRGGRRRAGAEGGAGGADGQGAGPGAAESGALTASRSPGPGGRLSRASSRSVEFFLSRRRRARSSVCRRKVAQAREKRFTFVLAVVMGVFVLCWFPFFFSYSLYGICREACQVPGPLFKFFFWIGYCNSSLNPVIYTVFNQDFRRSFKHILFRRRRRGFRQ
Protocol: as §1, §2

[14] = target: 5-HT1D (Homo sapiens, UniProt P28221)
Protocol: as §1, §2

[15] = target: KOR (Homo sapiens, UniProt P41145)
Protocol: as §1, §2

[16] = target: H1 (Homo sapiens, UniProt P35367)
Protocol: as §1, §2

[17] = target: T11, Beta1 (Homo sapiens, UniProt P08588)
T11 construct: purchased NIMH Psychoactive Drug Screening Program (PDSP)
Protocol: as §1, §2

[18] = target: H2 (Homo sapiens, UniProt P25021)
Protocol: as §1, §2

[19] = target: 5-HT2A (Homo sapiens, UniProt P28223)
Protocol: as §1, §2

[20] = target: T12, Alpha1B (Homo sapiens, UniProt P35368)
T12 construct: purchased NIMH Psychoactive Drug Screening Program (PDSP)
Protocol: as §1, §2

[21] = target: T13, 5-HT6 (Homo sapiens, UniProt P50406)
T13 construct: purchased NIMH Psychoactive Drug Screening Program (PDSP)
Protocol: as §1, §2

[22] = target: D3 (Homo sapiens, UniProt P35462)
Protocol: as §1, §2

[23] = target: 5-HT2B (Homo sapiens, UniProt P41595)
Protocol: as §1, §2

Sequence of 5-HT2B (P41595 whole entry, species assumed): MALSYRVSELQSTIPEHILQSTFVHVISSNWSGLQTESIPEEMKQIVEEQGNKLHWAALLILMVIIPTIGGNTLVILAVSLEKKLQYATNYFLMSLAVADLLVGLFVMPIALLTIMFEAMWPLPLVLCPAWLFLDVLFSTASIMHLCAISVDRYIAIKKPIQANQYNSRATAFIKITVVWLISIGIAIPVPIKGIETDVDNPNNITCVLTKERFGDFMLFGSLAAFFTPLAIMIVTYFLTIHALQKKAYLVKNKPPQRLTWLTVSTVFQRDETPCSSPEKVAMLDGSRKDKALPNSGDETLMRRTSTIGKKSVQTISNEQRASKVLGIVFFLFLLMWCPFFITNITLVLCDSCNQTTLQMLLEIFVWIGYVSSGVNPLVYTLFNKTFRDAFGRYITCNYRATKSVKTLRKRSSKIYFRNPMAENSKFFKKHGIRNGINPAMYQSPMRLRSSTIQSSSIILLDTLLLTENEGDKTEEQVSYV
Sequence of M3 (P20309 whole entry): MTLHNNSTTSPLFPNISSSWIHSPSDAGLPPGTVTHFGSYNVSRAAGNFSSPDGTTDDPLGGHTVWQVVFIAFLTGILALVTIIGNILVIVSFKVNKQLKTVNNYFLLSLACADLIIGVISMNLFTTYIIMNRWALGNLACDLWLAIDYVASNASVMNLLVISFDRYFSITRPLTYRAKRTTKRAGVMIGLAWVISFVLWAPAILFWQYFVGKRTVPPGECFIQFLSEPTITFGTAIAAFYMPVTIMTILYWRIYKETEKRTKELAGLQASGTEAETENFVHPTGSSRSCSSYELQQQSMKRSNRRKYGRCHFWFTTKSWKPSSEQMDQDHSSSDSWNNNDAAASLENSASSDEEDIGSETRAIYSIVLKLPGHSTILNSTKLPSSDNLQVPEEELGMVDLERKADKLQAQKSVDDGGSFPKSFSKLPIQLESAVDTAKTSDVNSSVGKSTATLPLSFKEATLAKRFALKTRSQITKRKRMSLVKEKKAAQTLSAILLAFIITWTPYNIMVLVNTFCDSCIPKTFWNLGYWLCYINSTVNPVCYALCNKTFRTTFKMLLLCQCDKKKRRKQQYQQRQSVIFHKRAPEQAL
Sequence of 5-HT1D (P28221 whole entry, species assumed): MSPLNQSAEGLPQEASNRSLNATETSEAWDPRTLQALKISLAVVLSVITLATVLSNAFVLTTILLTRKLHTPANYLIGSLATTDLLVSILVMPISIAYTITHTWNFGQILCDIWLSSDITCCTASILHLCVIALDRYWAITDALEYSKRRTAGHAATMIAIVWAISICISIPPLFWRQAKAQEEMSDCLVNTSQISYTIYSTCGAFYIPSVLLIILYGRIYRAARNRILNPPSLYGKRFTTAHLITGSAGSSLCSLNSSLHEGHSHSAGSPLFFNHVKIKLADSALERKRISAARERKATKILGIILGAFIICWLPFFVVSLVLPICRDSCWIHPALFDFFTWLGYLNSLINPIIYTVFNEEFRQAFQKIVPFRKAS
Sequence of KOR (P41145 whole entry): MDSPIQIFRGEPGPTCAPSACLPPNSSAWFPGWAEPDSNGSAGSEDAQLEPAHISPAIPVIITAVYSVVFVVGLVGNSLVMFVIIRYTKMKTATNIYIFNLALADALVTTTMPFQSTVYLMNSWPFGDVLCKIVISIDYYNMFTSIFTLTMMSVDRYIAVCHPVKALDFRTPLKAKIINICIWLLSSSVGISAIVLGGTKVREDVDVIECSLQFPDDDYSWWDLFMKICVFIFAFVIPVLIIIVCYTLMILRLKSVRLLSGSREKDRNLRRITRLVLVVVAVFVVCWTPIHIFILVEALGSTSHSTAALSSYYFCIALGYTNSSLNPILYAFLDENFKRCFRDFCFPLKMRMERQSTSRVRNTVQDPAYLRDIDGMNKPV
Sequence of D1 (P21728 whole entry): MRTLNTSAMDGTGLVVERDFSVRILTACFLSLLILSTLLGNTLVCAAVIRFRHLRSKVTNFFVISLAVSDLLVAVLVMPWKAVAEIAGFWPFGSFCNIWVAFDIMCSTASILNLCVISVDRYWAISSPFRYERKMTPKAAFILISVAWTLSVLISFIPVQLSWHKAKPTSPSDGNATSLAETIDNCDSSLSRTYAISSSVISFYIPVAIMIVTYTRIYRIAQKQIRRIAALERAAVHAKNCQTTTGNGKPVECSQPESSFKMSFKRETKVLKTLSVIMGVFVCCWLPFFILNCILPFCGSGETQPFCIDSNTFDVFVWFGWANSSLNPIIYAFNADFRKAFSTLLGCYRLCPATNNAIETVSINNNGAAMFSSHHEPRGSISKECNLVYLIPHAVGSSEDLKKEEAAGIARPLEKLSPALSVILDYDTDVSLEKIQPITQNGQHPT
Sequence of 5-HT2A (P28223 whole entry, species assumed): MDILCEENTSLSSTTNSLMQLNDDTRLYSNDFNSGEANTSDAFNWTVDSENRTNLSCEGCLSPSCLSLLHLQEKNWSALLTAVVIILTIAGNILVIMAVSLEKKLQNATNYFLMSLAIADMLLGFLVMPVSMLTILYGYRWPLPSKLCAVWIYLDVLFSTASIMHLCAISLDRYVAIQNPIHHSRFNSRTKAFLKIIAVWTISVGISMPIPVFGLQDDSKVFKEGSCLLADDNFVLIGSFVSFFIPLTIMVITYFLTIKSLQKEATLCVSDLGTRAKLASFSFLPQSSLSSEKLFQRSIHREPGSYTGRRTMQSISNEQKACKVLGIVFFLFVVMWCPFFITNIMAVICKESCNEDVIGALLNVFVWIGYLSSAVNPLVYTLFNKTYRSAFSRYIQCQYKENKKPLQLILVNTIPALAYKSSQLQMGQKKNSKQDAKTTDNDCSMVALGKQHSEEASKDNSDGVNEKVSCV
Sequence of H2 (P25021 whole entry): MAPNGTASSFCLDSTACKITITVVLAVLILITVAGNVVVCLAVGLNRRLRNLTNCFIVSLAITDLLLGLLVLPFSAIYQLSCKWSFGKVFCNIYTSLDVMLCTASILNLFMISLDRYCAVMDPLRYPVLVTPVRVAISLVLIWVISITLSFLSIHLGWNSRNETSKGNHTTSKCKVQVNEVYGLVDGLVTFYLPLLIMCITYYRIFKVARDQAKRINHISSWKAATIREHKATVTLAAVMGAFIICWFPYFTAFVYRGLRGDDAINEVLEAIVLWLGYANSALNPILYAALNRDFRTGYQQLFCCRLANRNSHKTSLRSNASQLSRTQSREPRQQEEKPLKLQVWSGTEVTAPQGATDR
Sequence of D3 (P35462 whole entry): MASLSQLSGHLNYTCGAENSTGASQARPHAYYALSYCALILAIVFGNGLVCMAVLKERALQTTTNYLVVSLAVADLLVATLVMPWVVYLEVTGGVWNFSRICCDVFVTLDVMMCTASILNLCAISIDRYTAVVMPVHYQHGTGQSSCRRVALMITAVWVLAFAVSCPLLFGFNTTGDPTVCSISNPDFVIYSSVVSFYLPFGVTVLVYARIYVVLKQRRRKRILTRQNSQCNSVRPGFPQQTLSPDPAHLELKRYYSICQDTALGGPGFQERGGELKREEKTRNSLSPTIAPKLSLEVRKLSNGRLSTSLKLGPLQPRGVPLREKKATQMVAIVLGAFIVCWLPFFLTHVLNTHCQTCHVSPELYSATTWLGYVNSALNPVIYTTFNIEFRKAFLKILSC
Sequence of H1 (P35367 whole entry): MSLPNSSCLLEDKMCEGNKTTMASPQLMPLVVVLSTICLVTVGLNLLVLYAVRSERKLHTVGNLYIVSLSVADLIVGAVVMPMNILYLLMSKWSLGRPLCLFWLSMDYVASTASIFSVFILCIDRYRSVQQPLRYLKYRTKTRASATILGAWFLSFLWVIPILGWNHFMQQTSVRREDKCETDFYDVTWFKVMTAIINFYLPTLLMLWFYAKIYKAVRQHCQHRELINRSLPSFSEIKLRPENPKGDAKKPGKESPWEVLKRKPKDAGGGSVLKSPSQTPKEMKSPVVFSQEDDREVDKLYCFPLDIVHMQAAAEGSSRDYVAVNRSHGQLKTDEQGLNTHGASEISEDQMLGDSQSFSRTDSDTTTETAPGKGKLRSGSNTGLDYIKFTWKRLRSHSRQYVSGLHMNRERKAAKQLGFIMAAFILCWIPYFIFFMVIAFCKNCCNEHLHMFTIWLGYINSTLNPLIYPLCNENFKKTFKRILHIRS
T4 sequence (P47898 whole entry): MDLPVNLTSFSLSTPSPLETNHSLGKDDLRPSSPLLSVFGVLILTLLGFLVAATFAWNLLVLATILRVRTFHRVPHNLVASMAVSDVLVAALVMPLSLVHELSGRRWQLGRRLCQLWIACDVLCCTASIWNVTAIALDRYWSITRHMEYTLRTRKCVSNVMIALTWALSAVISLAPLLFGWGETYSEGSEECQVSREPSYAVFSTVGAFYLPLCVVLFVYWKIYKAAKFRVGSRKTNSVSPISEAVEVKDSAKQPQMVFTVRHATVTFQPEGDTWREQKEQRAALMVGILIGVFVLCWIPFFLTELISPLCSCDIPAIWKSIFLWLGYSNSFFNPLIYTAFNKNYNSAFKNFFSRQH
T5 sequence (P35348 whole entry): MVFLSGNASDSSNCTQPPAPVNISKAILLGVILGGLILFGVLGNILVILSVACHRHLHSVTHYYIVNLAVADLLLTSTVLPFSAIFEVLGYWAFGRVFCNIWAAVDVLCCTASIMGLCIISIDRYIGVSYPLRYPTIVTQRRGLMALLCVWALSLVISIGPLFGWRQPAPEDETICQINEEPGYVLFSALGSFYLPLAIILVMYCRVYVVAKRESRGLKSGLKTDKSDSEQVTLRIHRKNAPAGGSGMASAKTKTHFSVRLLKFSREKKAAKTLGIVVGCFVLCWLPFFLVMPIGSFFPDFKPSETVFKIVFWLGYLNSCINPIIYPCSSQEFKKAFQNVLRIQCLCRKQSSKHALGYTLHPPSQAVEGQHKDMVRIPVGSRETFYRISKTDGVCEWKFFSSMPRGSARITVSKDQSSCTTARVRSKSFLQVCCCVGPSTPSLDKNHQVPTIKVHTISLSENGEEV

SMILES	inhibition at 10 µM [1] [%]	Mean % (inhibition) [2] [%]	inhibition at 10 µM [3] [%]	inhibition at 10 µM [4] [%]	inhibition at 10 µM [5] [%]	inhibition at 10 µM [6] [%]	inhibition at 10 µM [7] [%]	inhibition at 10 µM [8] [%]	inhibition at 10 µM [9] [%]	inhibition at 10 µM [10] [%]	pKi [11]	inhibition at 10 µM [11] [%]	inhibition at 10 µM [12] [%]	pKi [13]	inhibition at 10 µM [13] [%]	pKi [14]	inhibition at 10 µM [14] [%]	inhibition at 10 µM [15] [%]	inhibition at 10 µM [16] [%]	inhibition at 10 µM [17] [%]	other results
COc1ccc(-c2nc(C)c(Cl)c(OCCCN3CCCCC3)n2)cc1 [CNY-01, 5‐chloro‐2‐(4‐methoxyphenyl)‐4‐methyl‐6‐(3‐(piperidin‐1‐yl)propoxy)pyrimidine]	36.4	25.49	17.5	20.9	16.3	31.9	21.6	4.43	4.03	19	5.87	93.1	-5.06	6.37	85.1	5.57	91.9	61.1	93.2	7.15	pKi [15]: 5.97; pKi [16]: 6.18; pKi [18]: 6.15; inhibition at 10 µM [18]: 89.7%; inhibition at 10 µM [19]: 36.3%; inhibition at 10 µM [20]: -11.4%; inhibition at 10 µM [21]: 30.1%; pKi [22]: 6.28; inhibition at 10 µM [22]: 65.8%; pKi [23]: 6.04; inhibition at 10 µM [23]: 77.1%
Cc1nc(-c2ccc(Cl)cc2)nc(OCCCN2CCN(C)CC2)c1Cl [CNY-02, 5‐chloro‐2‐(4‐chlorophenyl)‐4‐methyl‐6‐(3‐(4‐methylpiperazin‐1‐yl)propoxy)pyrimidine]	29.1	32.06	-2.49	33.8	54	29.4	-1.08	-0.57	11.7	52.1	5.47	68.4	89.4	5.42	52.4	5.14	54.5	20.4	43.7	3.55	pKi [5]: 6.14; pKi [10]: 5.63; pKi [12]: 6.57; pKi [18]: 5.91; inhibition at 10 µM [18]: 84.9%; pKi [19]: 6.33; inhibition at 10 µM [19]: 85.5%; inhibition at 10 µM [20]: -26.1%; inhibition at 10 µM [21]: 28.1%; pKi [22]: 5.31; inhibition at 10 µM [22]: 66.1%; pKi [23]: 6.28; inhibition at 10 µM [23]: 90.4%
